Series [1] has as its system Tumor-bearing mice (murine cancer cell line s180). Put plainly: Effects of Arctigenin on myelosuppression caused by chemotherapy in tumor-bearing mice (blood routine examination). The series is classed as in vivo, Kunming mice. Conditions: for Neutrophil / White Blood Cells / platelet: s180 tumor-bearing mice, 10 days once per day, Docetaxel 75 mg/m^2/d, Imatinib Mesylate 222.2 mg/m^2/d tail vein, Arctigenin 10 mg/m^2/d peritoneal, n=10. As for the experimental part: (§1) The cell suspension was injected into abdominal cavity of mice under sterile conditions. The mice were sacrificed by cervical dislocation at 7 days after inoculation when the abdominal cavity expanded obviously, and then soaked in a flask with 75% ethanol for 2-3 min. The sterilized mice were placed on a superclean bench with abdomen exposed. The ascites were taken with sterile injectors and stored in sterile vials for further use. The ascites was counted by Trypan blue staining, and then diluted to 2.0×10^7 cell/ml with physiological saline. The animals were inoculated with the dilutions in the right armpit at 0.2 ml/animal.
The inoculated animals were divided randomly into following six groups with 10 animals each group (F:M=1:1): • 1. Model Group (Group M): receiving peritoneal injection of 0.9% physiological saline; • 2. Docetaxel Group (Group D): receiving 75 mg/m^2/d Docetaxel; • 3. […] Arctigenin Group (Group A): receiving 10 mg/m^2/d Arctigenin; • 5. Docetaxel plus Arctigenin Group (Group D+A): receiving 75 mg/m^2/d Docetaxel plus 10 mg/m^2/d Arctigenin; • 6.
(§2) Docetaxel and Imatinib Mesylate were administered via tail vein injection at dosages of 20 ml/kg. Arctigenin was administered via peritoneal injection at a dosage of 10 ml/kg. The administration was given to each group once per day for 10 days in total. During the experimental process, the animals were observed everyday for their diets, survivals and behaviors and weighted every day. At the end of the experiment, the animals were anaesthetized and anatomize to draw blood from abdominal vena cava for blood routine examination, including total white blood cell count, total platelet count and neutrophil count.

A short description of series [2]: Body weight and tolerability of tumor-bearing mice during administration. Format: in vivo, Kunming mice. The following applies: for Body weight before administration: mouse, in vivo. The protocol: as §1, with “The murine cancer cell line s180 was cultured in 1640 culture medium at 37° C., 5% CO2, sub-cultured every two days on average till logarithmic growth phase and then prepared into single cell suspension at 3.0×10^7 cell/ml with physiological saline. The cell” for “The cell”
The inoculated animals were divided randomly into following six groups with 10 animals each group (F:M=1:1): • 1. Model Group (Group M): receiving peritoneal injection of 0.9% physiological saline; • 2. Docetaxel Group (Group D): receiving 75 mg/m^2/d Docetaxel; • 3. Imatinib Mesylate Group (Group IM): receiving 222.2 mg/m^2/d Imatinib Mesylate; • 4. Arctigenin Group (Group A): receiving 10 mg/m^2/d Arctigenin; • 5. Docetaxel plus Arctigenin Group (Group D+A): receiving 75 mg/m^2/d Docetaxel plus 10 mg/m^2/d Arctigenin; • 6. Imatinib Mesylate plus Arctigenin Group (Group IM+A): receiving 222.2 mg/m^2/d Imatinib Mesylate plus 10 mg/m^2/d Arctigenin.
as §2

The subject of series [3] is mice received ^60Co radiation at 4Gy. Put plainly: Effects of Arctigenin on blood cell counts of mice under 60Co radiation. The series is classed as in vivo, Kunming mice. The source says: 1.1 Animals: Kunming mice (purchased from National Institute for the Control of Pharmaceutical and Biological Products, China; Laboratory Animal NO: SCXK II-00-0010; female/male ratio at 1:1; Age: 7 weeks; […] The rest mice were included in the experiment. The mice fulfilled the experimental requirements after radiation were divided randomly into the following groups of: model group, group of burdock extract and Arctigenin group (each group: n=10; F/M=1:1). Each group was subjected to treatment or administration as follows: • 1. Normal Group (Group N): peritoneal injection of 0.9% physiological saline at a volume of 10 ml/kg; • 2. Model Group (Group M): peritoneal injection of 0.9% physiological saline at a dose of […]; • 3. Group of burdock Extract (Group E): peritoneal injection of water […] of Arctium lappa at a dose of 3.5 ml/kg/d; • 4. Arctigenin Group (Group A): peritoneal injection of 10 mg/kg/d Arctigenin at a volume of 10 ml/kg. Said burdock extract was prepared by: 1) placing burdock in a pot, adding water till the plant was immerged; 2) soaking burdock for 30 min for promoting the extraction of the effective components; 3) rapidly heating till boiling, fully boiling for 1-3 min, further heating for 20-30 min for concentration, and filtrating through sterile gauzes into a beaker; and 4) mixing the first dose with re-extracted agents uniformly after the first extraction for balancing their effects. 200 ml water extracts were prepared from 1 kg burdock. The administration was given to each group once per day for 10 days in total. During the experimental process, the animals were observed everyday for their diets, survivals and behaviors and weighted every day. At the end of the experiment, the animals were anaesthetized and anatomize to take blood from abdominal vena cava for blood routine examination, including total white blood cell count and total platelet count.

The test system of the next series is NOD mouse. Put plainly: Effects of Arctigenin on white blood cell and platelet of NOD mouse. Format: in vivo, NOD/Ltj mice. The following applies: for White Blood Cells / platelets: NOD/Ltj mice, n=13. The text has this: Non-obese diabetic or NOD mice is a large mouse strain, including NOD/Scid, NOD/Ltj mice and the like. Yi Feng (Yi Feng, et al., “In vitro Expansion of Cord Blood Megakaryocyte Progenitor”, ACTA Academiae Medicinae Sinicae, Vol. 27, NO. 2, pp 199-204) directly expanded megakaryocyte progenitor from cord blood CD34+ cells by using thrombopoietin (TPO), interleukin-11 (IL-11) and heparin in combination. Intravenous infusion of the megakaryocytes expanded for 7 days (at a concentration of 5×10^6) into NOD/SCID mice received pre-treatment of radiation could accelerate the recovery of platelet and white blood cell account and improved the survival of the mice.
1.1 Animals: 52 NOD/Ltj mice (purchased from Vital River Laboratory Animal Technology Co., Ltd., Beijing; Laboratory Animal NO: SCXK (BJ) 2006-2009), female, Age: 5 weeks, Body weight: 16-20 g.
After one week of adaptive feeding, healthy NOD mice aged of 5 weeks were divided randomly into 4 groups: • I. Model Control Group: 13 animals; • II. Positive Control Group: 13 animals receiving gavage of interleukin at dose of 10.0 mg/kg every day; • III. Low-dose Arctigenin Group: 13 animals receiving gavage of […] at dose of 30 mg/kg every day; • IV. High-dose Arctigenin Group: 13 animals receiving gavage of […] at dose of 60 mg/kg every day.
The administration was given consecutively to each group once per day, and stopped after 15 days. The animals were then anaesthetized (3% pentobarbital sodium via intraperitoneal injection at 0.1˜0.15 ml/animal) and 1 ml blood was taken via abdominal vena cava for blood routine examination.

Where [4] appears, read: mice after 60Co 4 Gy whole body radiation, peritoneal injection once per day for 10 days, Arctigenin 10 mg/kg/d, burdock water extract 3.5 ml/kg/d, n=10.
The mark [5] stands for this setting: high-dose, gavage 60 mg/kg every day for 15 days.
Where [6] appears, read: low-dose, gavage 30 mg/kg every day for 15 days.

Structures can show the parent of a compound that is named as a salt.

Turning to `CC(=O)O[C@@]12CO[C@@H]1C[C@H](O)[C@@]1(C)C(=O)[C@H](O)C3=C(C)[C@@H](OC(=O)[C@H](O)[C@@H](NC(=O)OC(C)(C)C)c4ccccc4)C[C@@](O)([C@@H](OC(=O)c4ccccc4)[C@H]21)C3(C)C` [Group D, Docetaxel], in series [1], the Neutrophil was 0.670 ± 0.12 10^9/L, the “White Blood Cells” value was 2.773 ± 0.46 10^9/L and the platelet is 450.6 ± 30.5 10^9/L. The “Neutrophil numbers in comparison with Group M” value in series [1] (tumor-bearing mice, in words) was “decreased significantly”. Moreover, in series [2], the “Body weight before administration” value is 21.2 ± 1.8 g.
As for `COc1cc(C[C@H]2C(=O)OC[C@@H]2Cc2ccc(OC)c(OC)c2)ccc1O` [Arctigenin], the Neutrophil in series [1] is listed as 1.316 ± 0.15^#**^$$ 10^9/L. For the same molecule, the “White Blood Cells” value is given as 3.530 ± 0.31^##**^$$ 10^9/L in series [1], 4.225 ± 0.51^##$ 10^9/L in series [3] (setting [4]), 4.225 ± 0.51^##$ 10^9/L with NOD mouse (setting [5]) and 3.242 ± 0.45^#$ 10^9/L in the series on NOD mouse (setting [6]). The platelet in series [1] is listed as 687.4 ± 37.3^## 10^9/L; in series [3] (setting [4]), 596.2 ± 72.5^#$ 10^9/L. The “Total white blood cell count and total neutrophil count compared with the Docetaxel group and the imatinib mesylate group” value in series [1] (tumor-bearing mice, P<0.01, in words) is “significant increases in total white blood cell count and total neutrophil count”. Besides, the “Total white blood cell count and total neutrophil count compared with the model group” value in series [1] (tumor-bearing mice, P<0.01 or P<0.05, in words) was “increase in both the total white blood cell count and the total neutrophil count”. Moreover, the “Total white blood cell count and platelet count in comparison with the model group” value in series [3] (60Co 4 Gy radiated mice, P<0.01 or P<0.05, in words) is “increase in both total white blood cell count and the platelet count”. Moreover, the “White blood cell counts and platelet counts compared with model group” value in the series on NOD mouse (NOD mice, low-dose and high-dose groups, in words) is recorded as “significantly higher”. The platelets in the series on NOD mouse (setting [5]) is recorded as 780.2 ± 46.5^##$$ 10^9/L; in the series on NOD mouse (setting [6]) it was 730.5 ± 34.6^##$ 10^9/L. The “Body weight before administration” value in series [2] came to 21.1 ± 3.0 g. Besides, the “Toxic or side effects” value in series [2] (tumor-bearing mice, 10 days administration, in words) is “does not have significant toxic or side effects”.
Consider `Cc1ccc(NC(=O)c2ccc(CN3CCN(C)CC3)cc2)cc1Nc1nccc(-c2cccnc2)n1` [Group IM, Imatinib Mesylate], for which, in series [1], the Neutrophil is on record as 0.695 ± 0.09 10^9/L, the “White Blood Cells” value is 2.703 ± 0.37 10^9/L and the platelet is recorded as 432.9 ± 34.8 10^9/L. In addition, the “Neutrophil numbers in comparison with Group M” value in series [1] (tumor-bearing mice, in words) was “decreased significantly”. For the same molecule, the “Body weight before administration” value in series [2] came out at 21.3 ± 2.3 g.
